Experimental data published in PubChem BioAssay AID179 (DTP/NCI, 2004).
Activity calls are given as the source filed them.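 The calls were made as follows: active = compounds giving half or more protection of infected cells from virus-caused growth loss, again on retest; inactive = the rest.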

Test system: CEM cells HIV-1 protection, formazan growth assay
Experiment: NCI AIDS Antiviral Assay
Conditions: for IC50: measured here: growth of uninfected CEM cells
Method in brief: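 Protection of CEM cells against HIV-1 was scored from cell growth (soluble formazan) across five concentrations, with parallel uninfected cells. Lack of protection may reflect toxicity.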

| Structure (SMILES) | EC50 [µM] | IC50 [µM] | outcome |
| --- | --- | --- | --- |
| COc1ccc(C(c2cc(OC)c(OC)c(OC)c2)N2C(=O)CCC2C(=O)O)cc1 (stereo unspecified) | > 200 | 33.1 |  |
| CCOC(=O)C(=O)N=Nc1nc2c(O)c3ccccc3c(O)c2s1 | > 15.1 | 8.71 |  |
| COC(=O)c1cc(C(=C(Cl)Cl)c2cc(C(=O)OC)c(OC)c(Br)c2C)c(C)c(Br)c1OC | > 200 | 79.4 |  |
| O=[N+]([O-])c1ccc(C2Nc3cc(Cl)c(Cl)cc3S(=O)(=O)N2O)cc1 (stereo unspecified) | > 93.3 | 64.6 |  |
| NC(CSS(=O)(=O)CC(N)C(=O)O)C(=O)O (stereo unspecified) |  | 63.1 | inactive |
| Nc1ncnc2c1ncn2C1SC(CO)C(O)C1O (stereo unspecified) | 45.7 | 148 |  |
| CCOC(=O)C#CC(=O)OCC | > 200 | 15.1 |  |
| Cc1ccc2cc(NC(=O)CBr)c3ccc(C)nc3c2n1.Cc1ccc2cc(NC(=O)CBr)c3ccc(C)nc3c2n1.O=C1OC(C(O)C[O-])C(O)=C1O.[Cu+] | > 12.6 | 3.02 |  |
| O=C(CCCCC[n+]1ccccc1)Sc1ccccc1C(=O)NCc1ccc2c(c1)OCO2 | > 34.7 | 5.37 |  |
| Cc1nnc2n1-c1ccccc1C(=S)N1CSCC21 (stereo unspecified) | > 200 | > 200 |  |
| Cn1c(=O)cc(C=Nc2ccc(C(=O)O)cc2)c2ccccc21 | > 200 | 1.32 |  |
| COC(=O)c1cccc(OC)c1C#Cc1c(OC)cccc1OC | > 200 | 21.9 |  |
| COc1cccc2c1C(=O)c1c(O)c3c(c(O)c1C2=O)C[C@@](O)(C(C)=O)C[C@@H]3OC1CC(N)C(O)C(C)O1 (stereo partly specified) | > 4.47 | 0.0038 |  |
| CC(=O)N(C(C)=O)n1c(Cc2ccc(Cl)cc2)n[nH]c1=O | > 200 | > 200 |  |
| COc1cc2c(cc1OC)C1c3ccccc3CN1CC2 (stereo unspecified) | > 200 | 105 |  |
| CCOC(=O)CC(C)P(c1ccccc1)C(C)CC(=O)OCC (stereo unspecified) | > 741 | > 741 |  |
| CC(C)(C)c1ccc(SSc2ccc(C(C)(C)C)cc2)cc1 | > 200 | 12.3 |  |
| CC(=O)CC1=C(OC(C)C)C2(OCCO2)C1O (stereo unspecified) | > 200 | > 200 |  |
| CCOC(=O)C1(C/C=C/CBr)Cc2ccccc2C1=O (stereo unspecified) | > 200 | 1.66 |  |
| CCC12C=CCN(CCc3c([nH]c4ccccc34)/C=C\1)C2 (stereo unspecified) | > 295 | > 295 |  |
| COc1cc(C=C2N=C(c3ccccc3)N(n3c(-c4ccccc4)nc4ccccc4c3=O)C2=O)cc(OC)c1OC | > 200 | 30.9 |  |
| COc1cc(/C=C2\C(=O)N(c3cccc(Cl)c3)C(c3ccccc3)S2(=O)=O)cc(OC)c1OC (stereo unspecified) | > 200 | 112 |  |

| Structure (SMILES) | EC50 [µM] | IC50 [µM] | outcome |
| --- | --- | --- | --- |
| Cc1c([N+](=O)[O-])c(=O)oc2c(C)c3occc(=O)c3cc12 | > 6.92 | > 6.92 |  |
| COc1cc2c(c(OC)c1OC)C(=O)[C@@H](O)[C@H]2NC(N)=O | > 200 | > 200 |  |
| O=C(O)c1ccc(S(=O)(=O)c2cccc([N+](=O)[O-])c2)cc1 | > 200 | > 200 |  |
| COc1ccc(C2C(C#N)=C(O)NC(O)=C2C#N)cc1OC | > 120 | > 120 |  |
| CCCCCCC1CCC2CCCC(C)N12 (stereo unspecified) | > 162 | > 162 |  |
| [N-]=[N+]=Nc1cc(=O)oc2ccccc12 | > 200 | 117 |  |
| CC1=C(C)C(=O)C(C2=C(C3=CC(=O)C(C)=C(C)C3=O)C(=O)C(C)=C(C)C2=O)=CC1=O | > 20 | 1.02 |  |
| CC(C)(C)NCc1c(C(=O)NCCO)[n+](=O)c2ccccc2n1[O-] | > 75.9 | > 75.9 |  |
| O=C(CC(=O)N1N=C(c2ccccc2)C(N=Nc2ccccc2[N+](=O)[O-])C1=O)Nc1ccccc1F (stereo unspecified) | > 27.5 | > 27.5 |  |
| C=C[C@@]1(C)CC2CC[C@]3(C)C(C)=CC(=O)CC3[C@]2(C)CC1O (stereo partly specified) | > 200 | 107 |  |
| C1=C(c2ccccc2)Nc2ccccc2N=C1c1ccccc1 | > 200 | > 200 |  |
| CCOC(=O)CCn1ncc(Cl)c(Cl)c1=O | > 933 | 4.07 |  |
| CN(Cc1ccccc1)C1(N(C)Cc2ccccc2)CC1 |  |  | inactive |
| CCCCn1cnc2ccc3[nH]c(C)nc3c2c1=O | > 759 | 55 |  |
| N/N=C(\C(=O)Nc1c(Cl)cc([N+](=O)[O-])cc1Cl)C(c1cnc2ccc([N+](=O)[O-])cc2n1)[N+](=O)[O-] (stereo unspecified) | > 70.8 | > 70.8 |  |
| CCOc1cc(C2SCC(=O)N2c2ccc(Oc3ccc(Cl)cc3)c(Cl)c2)ccc1O (stereo unspecified) | > 200 | 27.5 |  |
| Nc1ccc(-c2nc3ccc(Cc4ccc5nc(-c6ccc(N)cc6)oc5c4)cc3o2)cc1 | 107 | > 200 |  |
| COc1cc2ccnc3c2c(c1O)-c1ccccc1C3=O |  |  | inactive |
| CC(=O)NNc1nc(C)c(C(=O)NNC(=O)C(=O)Nc2ccc(Cl)cc2)s1 |  |  | inactive |
| CC(C)=CC(=O)OC1C2C(C)=CC(=O)C(O)C2(C)C2C3(O)OCC24C(CC(=O)OC14)C(C)C3O (stereo unspecified) | > 0.2 | 0.0112 |  |
| CNCc1c2c(O)c3c(O)c(C)c4c(c3c1O)C(=O)C(C)(O/C=C/C(OC)C(C)C(OC(C)=O)C(C)C(O)C(C)C(O)C(C)/C=C/C=C(/C)C(=O)N2)O4 (stereo unspecified) | > 200 | 16.6 |  |
| CCOC(=O)c1c(C)nc(C)c(C(=O)OCC)c1-c1ccc(N(C)C)cc1 | > 200 | 53.7 |  |

| Structure (SMILES) | EC50 [µM] | IC50 [µM] | outcome |
| --- | --- | --- | --- |
| COc1ccc2c(CCNC(C)=O)c(C(C)=O)[nH]c2c1 |  |  | inactive |
| COc1ccc(OC)c2[nH]c(CCc3nc4c(OC)ccc(OC)c4[nH]3)nc12 |  |  | inactive |
| Clc1ccccc1C(n1cc(Br)cn1)n1cc(Br)cn1 |  |  | inactive |
| O=C1C(=Cc2ccco2)C(=O)C2CCCCC12 (stereo unspecified) | > 200 | 166 |  |
| CC(C)(NC1=NCCO1)c1ccccc1 | > 200 | > 200 |  |
| COC(=O)C1(COCc2ccccc2)CCCC2OC21 (stereo unspecified) |  |  | inactive |
| CCC(C)C(NC(=O)C(CCCCN)NC(=O)CNC(=O)C(NC(=O)C(NC(=O)C(NC(=O)C(Cc1ccccc1)NC(=O)C(C)NC(=O)C(CCCNC(=N)N)NC(=O)CNC(=O)C1CCCN1C(=O)CNC(=O)C(CCCNC(=N)N)NC(=O)C(CCC(N)=O)NC(=O)C(NC(=O)C(CCCNC(=N)N)NC(=O)C(NC(=O)C(COC1OC(CO)C(O)C(O)C1NC(C)=O)NC(=O)C(CCCCN)NC(=O)C(CCCNC(=N)N)NC(=O)C(NC(=O)C(CC(N)=O)NC(=O)C(N)CC(N)=O)C(C)O)C(C)CC)C(C)CC)C(C)C)C(C)OC1OC(CO)C(O)C(O)C1NC(C)=O)C(C)CC)C(=O)NCOC#N (stereo unspecified) | > 27.5 | > 27.5 |  |
| O=c1c2cc(Br)ccc2n(C2OC(CO)C(O)C(O)C2O)c(=S)n1-c1ccccc1 (stereo unspecified) | > 52.5 | > 52.5 |  |
| Cc1cc(=O)[nH]c2c3c(ccc12)OC(C)(C)C=C3 | > 200 | 3.72 |  |
| c1ccc2c(c1)[nH]c1c(N3CCOCC3)nnc(N3CCOCC3)c12 | > 200 | > 200 |  |
| COc1ccc2cc3[nH]c(=O)cc(O)c3cc2c1OC |  |  | inactive |
| CCCCCCCCOP(=O)(O)OP(=O)(O)OCC1OC(n2ccc(N)nc2=O)C(O)C1O (stereo unspecified) | > 200 | > 200 |  |
| OCC(O)C(O)C(O)c1nn[nH]n1 (stereo unspecified) |  |  | inactive |
| Cc1n[nH]c(=O)n1/N=C\CC/C=N\n1c(C)n[nH]c1=O | > 200 | > 200 |  |
| COc1cc2c(cc1OCc1ccccc1)NC(=O)[C@@H]1CCCN1C2=O | > 200 | > 200 |  |
| Cn1cnc([N+](=O)[O-])c1Sc1nnc(-c2ccc(Cl)cc2)n1C | > 372 | 3.02 |  |
| Cc1c(C#N)c(N)n(C2OCC(O)C(O)C2O)c(=S)c1C#N (stereo unspecified) |  |  | inactive |
| CCN1C(NN)=NS(=O)(=O)c2ccccc21 | > 200 | > 200 |  |
| COc1cccc(NC(=O)CC(=O)NNCC(=O)Nc2nnc(-c3ccc(N(CCC#N)S(=O)(=O)c4ccccc4)cc3)s2)c1 | > 77.6 | 66.1 |  |
| COc1cc(C2C3=C(COC3=O)OC(C)(C)Oc3cc4c(cc32)OCO4)cc(OC)c1OC (stereo unspecified) | > 2 | 0.355 |  |
| CCc1cccc(C(C)C)c1N1C(=O)C(=O)C(c2nc3ccccc3s2)C(=O)C1=O | > 17.4 | > 17.4 |  |
| O=[N+]([O-])c1ccc(S(=O)(=O)N/N=C/C=C/c2ccccc2)cc1 | > 151 | > 151 |  |

| Structure (SMILES) | EC50 [µM] | IC50 [µM] | outcome |
| --- | --- | --- | --- |
| CC1(C)CCCOc2ccc(C(=O)O)cc21 | > 200 | > 200 |  |
| COc1ccc(C2=NC(CO)[C@H](c3ccccc3)O2)cc1OC (stereo partly specified) | > 219 | > 219 |  |
| CC(C)(C)n1c(=O)[nH]c(=O)n1C(C)(C)C | > 200 | > 200 |  |
| Cn1c(O)c(C=Nc2ccc(Cl)cc2Cl)c(=O)n(C)c1=O | > 200 | > 200 |  |
| CCc1nnc2sc3c(Cl)c4nn5c(CC)nnc5sc4c(Cl)c3nn12 | > 200 | 11.7 |  |
| O=c1onc2n1-c1ccc(Cl)cc1C(=S)N1CSCC21 (stereo unspecified) | > 200 | 32.4 |  |
| Nc1nc2ccccc2nc1N | > 200 | > 200 |  |
| CCOC(=O)/C(=C/c1ccc(N(CCC#N)CCC#N)cc1C)NC(=O)/C=C/c1ccccc1 |  |  | inactive |
| COc1ccc(C(=O)c2ccc(OC)c(S(=O)(=O)OC)c2)cc1S(=O)(=O)OC | > 43.7 | > 43.7 |  |
| O=C(Nc1ccc(C2=NC3CCCCC3N2)cc1)c1ccc(C(=O)Nc2ccc(C3=NC4CCCCC4N3)cc2)cc1 (stereo unspecified) | > 200 | 9.33 |  |
| O=C(O)C1CC2C3CC(C(=O)O)C(C3)C2C1 (stereo unspecified) | > 200 | > 200 |  |
| O=c1[nH]c2cc(Cl)ccc2nc1/C(=N\O)C(O)c1ccc([N+](=O)[O-])cc1 (stereo unspecified) |  |  | inactive |
| S=C1CC(c2ccccc2)Sc2ccc(Cl)cc2N1 (stereo unspecified) | > 200 | 34.7 |  |
| O=C(NC(=S)NC(=O)c1cc(O)c(O)c(O)c1)c1cc(O)c(O)c(O)c1 | > 200 | 4.27 |  |
| CCOC(=O)/C=C1\SC12C(C)(C)CCCC2(C)C | > 200 | 61.7 |  |
| CC(Cc1ccccc1)NN(CS(=O)(=O)O)CS(=O)(=O)O (stereo unspecified) |  |  | inactive |
| CC(C)[C@H]1CO[C@@H]2O[C@H](C)CC(=O)N21 | > 1260 | > 1260 |  |
| Cc1ccccc1NC(=O)/C=N/O |  |  | inactive |
| O=C1Cc2c(-c3ccccc3)cc(-c3ccc(Cl)cc3)nc2-c2ccccc2N1 | > 200 | 93.3 |  |
